Reference: ChEMBL document CHEMBL1146197, “Evolution of TEM-type enzymes: biochemical and genetic characterization of two new complex mutant TEM enzymes, TEM-151 and TEM-152, from a single patient” (Antimicrob Agents Chemother, 2007)
Converted amounts (≈) assume the structure as drawn.

Tests used:
Escherichia coli [1] = test: Antimicrobial activity against Escherichia coli DH5-alpha CF1179 isolate expressing CMT and TEM1 by […]; format: functional; conditions: DH5alpha
Escherichia coli [2] = test: microbe, parasite or virus in culture; format: functional; conditions: DH5alpha
Escherichia coli [3] = test: Antimicrobial activity against recombinant Escherichia coli DH5-alpha isolate expressing pBK-TEM-29 and ESBL by disk diffusion assay; format: functional; conditions: DH5alpha
Escherichia coli [4] = test: Antimicrobial activity against recombinant Escherichia coli DH5-alpha isolate expressing pBK-TEM-28 and ESBL by disk diffusion assay; format: functional; conditions: DH5alpha
Escherichia coli [5] = test: Antimicrobial activity against recombinant Escherichia coli DH5-alpha isolate expressing pBK-TEM-1 and TEM1 by disk diffusion assay; format: functional; conditions: DH5alpha
Escherichia coli [6] = test: Antimicrobial activity against Escherichia coli DH5-alpha TC1295 isolate expressing TEM-1 by […]; format: functional; conditions: DH5alpha
Escherichia coli [7] = test: Antimicrobial activity against Escherichia coli DH5-alpha TC1179 isolate expressing TEM-1 by […]; format: functional; conditions: DH5alpha
Escherichia coli [8] = test: Antimicrobial activity against Escherichia coli DH5-alpha isolate expressing pBK-CMV by […]; format: functional; conditions: DH5alpha
Escherichia coli [9] = test: Activity of Escherichia coli BL21(DE3) beta-lactamase TEM151
Escherichia coli [10] = test: Activity of Escherichia coli BL21(DE3) beta-lactamase TEM29
Escherichia coli [11] = test: Activity of Escherichia coli BL21(DE3) beta-lactamase TEM152
Escherichia coli [12] = test: Activity of Escherichia coli BL21(DE3) beta-lactamase TEM28
Escherichia coli [13] = test: Activity of Escherichia coli BL21(DE3) beta-lactamase TEM36
Escherichia coli [14] = test: Activity of Escherichia coli BL21(DE3) beta-lactamase TEM1
Escherichia coli [15] = test: Antimicrobial activity against recombinant Escherichia coli DH5-alpha isolate expressing pBK-TEM-36 and IRT by disk diffusion assay; format: functional; conditions: DH5alpha
Escherichia coli [16] = test: Antimicrobial activity against Escherichia coli DH5-alpha CF1295 isolate expressing CMT and TEM1 by […]; format: functional; conditions: DH5alpha
Escherichia coli [17] = test: microbe, parasite or virus in culture; format: functional; conditions: DH5alpha; remark: listed apart in the source
[18] = Inhibition of Escherichia coli BL21(DE3) beta-lactamase TEM151
[19] = Inhibition of Escherichia coli BL21(DE3) beta-lactamase TEM152
[20] = Inhibition of Escherichia coli BL21(DE3) beta-lactamase TEM28
[21] = Inhibition of Escherichia coli BL21(DE3) beta-lactamase TEM29
[22] = Inhibition of Escherichia coli BL21(DE3) beta-lactamase TEM36
[23] = Inhibition of Escherichia coli BL21(DE3) beta-lactamase TEM1

Row | Compound | MIC (Escherichia coli [1]) [µg/mL] | MIC (Escherichia coli [2]) [µg/mL] | MIC (Escherichia coli [3]) [µg/mL] | MIC (Escherichia coli [4]) [µg/mL] | MIC (Escherichia coli [5]) [µg/mL] | MIC (Escherichia coli [6]) [µg/mL] | MIC (Escherichia coli [7]) [µg/mL] | MIC (Escherichia coli [8]) [µg/mL] | Km (Escherichia coli [9]) [µM] | kcat (Escherichia coli [9]) [s⁻¹] | kcat/Km (Escherichia coli [9]) [M⁻¹ s⁻¹] | Km (Escherichia coli [10]) [µM] | kcat (Escherichia coli [10]) [s⁻¹] | kcat/Km (Escherichia coli [10]) [M⁻¹ s⁻¹] | Km (Escherichia coli [11]) [µM] | kcat (Escherichia coli [11]) [s⁻¹] | kcat/Km (Escherichia coli [11]) [M⁻¹ s⁻¹] | MIC (Escherichia coli [15]) [µg/mL] | MIC (Escherichia coli [16]) [µg/mL] | MIC (Escherichia coli [17]) [µg/mL] | other results
1 | CO/N=C(\C(=O)N[C@@H]1C(=O)N2C(C(=O)[O-])=C(C[N+]3(C)CCCC3)CS[C@H]12)c1csc(N)n1 | 2 (≈ 4.16 µM) | 16 (≈ 33.3 µM) | 4 | 16 | < 0.06 | < 0.06 | < 0.06 | < 0.06 | 126 | 2.5 | 20000 | 145 | 17 | 110000 | 45 | 2.8 | 60000 | 0.12 |  |  | Km (Escherichia coli [12]): 72 µM; kcat (Escherichia coli [12]): 8 s⁻¹; kcat/Km (Escherichia coli [12]): 110000 M⁻¹ s⁻¹; kcat (Escherichia coli [13]): < 0.1 s⁻¹; kcat (Escherichia coli [14]): < 0.1 s⁻¹
2 | C[C@H]1[C@H](NC(=O)/C(=N\OC(C)(C)C(=O)O)c2csc(N)n2)C(=O)N1S(=O)(=O)O (stereo in doubt) [AZTREONAM] | > 2050 | 64 (≈ 147 µM) | 4 |  |  |  |  |  | 83 | 8.3 | 100000 | 34 | 2.1 | 60000 | 22 | 3.5 | 160000 |  | 8 (≈ 18.4 µM) | 2 (≈ 4.59 µM) | Km (Escherichia coli [12]): 75 µM; kcat (Escherichia coli [12]): 43 s⁻¹; kcat/Km (Escherichia coli [12]): 570000 M⁻¹ s⁻¹; kcat (Escherichia coli [13]): < 0.1 s⁻¹; kcat (Escherichia coli [14]): < 0.1 s⁻¹
3 | CC1(C)S[C@@H]2[C@H](NC(=O)[C@H](N)c3ccc(O)cc3)C(=O)N2[C@H]1C(=O)O [AMOXICILLIN] | > 2050 | > 2050 | > 2050 | > 2050 | > 2050 | > 2050 | > 2050 | 4 (≈ 10.9 µM) | 40 | 149 | 3.7e+06 | 26 | 91 | 3.5e+06 | 48 | 258 | 5.4e+06 | > 2050 | > 2050 | > 2050 | Km (Escherichia coli [12]): 12 µM; kcat (Escherichia coli [12]): 88 s⁻¹; kcat/Km (Escherichia coli [12]): 7.3e+06 M⁻¹ s⁻¹; Km (Escherichia coli [13]): 114 µM; kcat (Escherichia coli [13]): 624 s⁻¹; kcat/Km (Escherichia coli [13]): 5.5e+06 M⁻¹ s⁻¹; Km (Escherichia coli [14]): 15 µM; kcat (Escherichia coli [14]): 1120 s⁻¹; kcat/Km (Escherichia coli [14]): 7.5e+07 M⁻¹ s⁻¹
4 | CO/N=C(\C(=O)N[C@@H]1C(=O)N2C(C(=O)O)=C(COC(C)=O)CS[C@H]12)c1csc(N)n1 [CEFOTAXIME] | 0.12 (≈ 0.263 µM) | 0.25 (≈ 0.549 µM) | 0.5 | 4 | 0.06 | 0.02 (≈ 0.0439 µM) | 0.02 (≈ 0.0439 µM) | 0.02 (≈ 0.0439 µM) | 304 | 5 | 20000 | 345 | 14 | 40000 | 34 | 1 | 30000 | 0.06 | 0.12 (≈ 0.263 µM) | 0.06 (≈ 0.132 µM) | Km (Escherichia coli [12]): 50 µM; kcat (Escherichia coli [12]): 9 s⁻¹; kcat/Km (Escherichia coli [12]): 180000 M⁻¹ s⁻¹; kcat (Escherichia coli [13]): < 0.1 s⁻¹; kcat (Escherichia coli [14]): < 0.1 s⁻¹
5 | CO[C@@]1(NC(=O)Cc2cccs2)C(=O)N2C(C(=O)O)=C(COC(N)=O)CS[C@@H]21 [CEFOXITIN] | 8 (≈ 18.7 µM) | 8 (≈ 18.7 µM) | 16 | 8 | 4 | 4 (≈ 9.36 µM) | 4 (≈ 9.36 µM) | 4 (≈ 9.36 µM) |  |  |  |  |  |  |  |  |  | 8 | 8 (≈ 18.7 µM) | 8 (≈ 18.7 µM) | 
6 | CC(C)(O/N=C(\C(=O)N[C@@H]1C(=O)N2C(C(=O)[O-])=C(C[n+]3ccccc3)CS[C@H]12)c1csc(N)n1)C(=O)O [CEFTAZIDIME] | 64 (≈ 117 µM) | 512 (≈ 937 µM) | 32 | 512 | 0.12 | 0.12 (≈ 0.22 µM) | 0.12 (≈ 0.22 µM) | 0.12 (≈ 0.22 µM) | 250 | 5 | 20000 | 215 | 10 | 50000 | 230 | 16 | 70000 | 0.25 | 4 (≈ 7.32 µM) | 8 (≈ 14.6 µM) | Km (Escherichia coli [12]): 240 µM; kcat (Escherichia coli [12]): 64 s⁻¹; kcat/Km (Escherichia coli [12]): 270000 M⁻¹ s⁻¹; kcat (Escherichia coli [13]): < 0.1 s⁻¹; kcat (Escherichia coli [14]): < 0.1 s⁻¹
7 | CO/N=C(\C(=O)N[C@@H]1C(=O)N2C(C(=O)O)=C(COC(N)=O)CS[C@H]12)c1ccco1 [CEFUROXIME] | 8 (≈ 18.9 µM) | 8 (≈ 18.9 µM) | 1020 | 16 | 4 | 4 (≈ 9.43 µM) | 4 (≈ 9.43 µM) | 4 (≈ 9.43 µM) |  |  |  |  |  |  |  |  |  | 8 | 8 (≈ 18.9 µM) | 8 (≈ 18.9 µM) | 
8 | CC(=O)OCC1=C(C(=O)O)N2C(=O)[C@@H](NC(=O)Cc3cccs3)[C@H]2SC1 [CEPHALOTHIN] | 32 (≈ 80.7 µM) | 16 (≈ 40.4 µM) | 64 | 128 | 4 | 4 (≈ 10.1 µM) | 4 (≈ 10.1 µM) | 4 (≈ 10.1 µM) | 330 | 15 | 40000 | 205 | 126 | 610000 | 260 | 4 | 20000 | 16 | 32 (≈ 80.7 µM) | 8 (≈ 20.2 µM) | Km (Escherichia coli [12]): 288 µM; kcat (Escherichia coli [12]): 194 s⁻¹; kcat/Km (Escherichia coli [12]): 670000 M⁻¹ s⁻¹; Km (Escherichia coli [13]): 335 µM; kcat (Escherichia coli [13]): 18.4 s⁻¹; kcat/Km (Escherichia coli [13]): 50000 M⁻¹ s⁻¹; Km (Escherichia coli [14]): 242 µM; kcat (Escherichia coli [14]): 165 s⁻¹; kcat/Km (Escherichia coli [14]): 700000 M⁻¹ s⁻¹
9 | O=C(O)[C@H]1/C(=C/CO)O[C@@H]2CC(=O)N21 [CLAVULANIC ACID] |  |  |  |  |  |  |  |  |  |  |  |  |  |  |  |  |  |  |  |  | IC50 [18]: 170 nM; IC50 [19]: 1000 nM; IC50 [20]: 20 nM; IC50 [21]: 20500 nM; IC50 [22]: 80 nM; IC50 [23]: 25 nM
10 | CCN1CCN(C(=O)N[C@@H](C(=O)N[C@@H]2C(=O)N3[C@@H]2SC(C)(C)[C@@H]3C(=O)O)c2ccccc2)C(=O)C1=O [PIPERACILLIN] | > 2050 | > 2050 | 1020 | > 2050 | 512 | 512 (≈ 989 µM) | 512 (≈ 989 µM) | 2 (≈ 3.86 µM) | 44 | 172 | 3.9e+06 | 39 | 336 | 8.6e+06 | 50 | 306 | 6.12e+06 | > 2050 | 512 (≈ 989 µM) | 256 (≈ 495 µM) | Km (Escherichia coli [12]): 27 µM; kcat (Escherichia coli [12]): 213 s⁻¹; kcat/Km (Escherichia coli [12]): 7.9e+06 M⁻¹ s⁻¹; Km (Escherichia coli [13]): 170 µM; kcat (Escherichia coli [13]): 1220 s⁻¹; kcat/Km (Escherichia coli [13]): 7.1e+06 M⁻¹ s⁻¹; Km (Escherichia coli [14]): 55 µM; kcat (Escherichia coli [14]): 1250 s⁻¹; kcat/Km (Escherichia coli [14]): 2.3e+06 M⁻¹ s⁻¹
11 | C[C@]1(Cn2ccnn2)[C@H](C(=O)O)N2C(=O)C[C@H]2S1(=O)=O [TAZOBACTAM] |  |  |  |  |  |  |  |  |  |  |  |  |  |  |  |  |  |  |  |  | IC50 [18]: 270 nM; IC50 [19]: 400 nM; IC50 [20]: 20 nM; IC50 [21]: 2400 nM; IC50 [22]: 130 nM; IC50 [23]: 30 nM
12 | CC1(C)S[C@@H]2[C@H](NC(=O)[C@H](C(=O)O)c3ccsc3)C(=O)N2[C@H]1C(=O)O [TICARCILLIN] | > 2050 | > 2050 | > 2050 | > 2050 | > 2050 | > 2050 | > 2050 | 2 (≈ 5.2 µM) | 21 | 60 | 2.9e+06 | 14 | 42 | 3e+06 | 36 | 51 | 1.4e+06 | > 2050 | > 2050 | > 2050 | Km (Escherichia coli [12]): 9 µM; kcat (Escherichia coli [12]): 38 s⁻¹; kcat/Km (Escherichia coli [12]): 4.2e+06 M⁻¹ s⁻¹; Km (Escherichia coli [13]): 130 µM; kcat (Escherichia coli [13]): 176 s⁻¹; kcat/Km (Escherichia coli [13]): 1.3e+06 M⁻¹ s⁻¹; Km (Escherichia coli [14]): 36 µM; kcat (Escherichia coli [14]): 135 s⁻¹; kcat/Km (Escherichia coli [14]): 3.8e+06 M⁻¹ s⁻¹
